# Experimental data taken from patent US20260176393A1, “PRESERVATIVE COMPOSITION FOR BIOLOGICAL SAMPLES” (KANAZAWA UNIVERSITY, priority 2022, published 2026).
# Tests used:
# [1] = Osmotic pressure, vapor pressure-type osmometer; assay type: physicochemical; details: 10 wt % in Water
# Experimental: A vapor pressure-type osmometer (VAPRO 5600; Wescor, Inc., Logan, UT, USA) was used, and an osmotic pressure was measured in a 10 mL standard chamber (room temperature: 25° C., apparatus sensor temperature: 33° C., sample volume: 10 μL).
# [2] = test system: Human kidney cells (BOSC); assay: Cryopreservation test, survival rate of BOSC cells; assay type: cell-based; details: 10 wt % in Water; after cryopreservation
# Experimental: In the case of adherent cells, the cells to be frozen were treated with trypsin and recovered by centrifugation. In the case of floating cells, the cells to be frozen were recovered by centrifugation. The cells of each type were diluted with Dulbecco's modified Eagle medium (DMEM), and the cell concentration was measured. In the present specification, the DMEM solution is also simply referred to as a medium.
# Subsequently, each dilution was dispensed at 1 mL/tube to 1.5 mL tubes, and the cells were suspended in a cryopreservative solution containing 100 μL of a zwitterion polymer solution and frozen at a cooling temperature of −85° C. and a cooling rate of −1° C./min by a cell freezing container Mr. Frosty®. In the present Examples, the commercially available cryopreservative solution used was CultureSure® (manufactured by FUJIFILM Wako Pure Chemical Corp.) unless otherwise specified. The cryopreservation time was set to 48 hours. Then, the cells were thawed at a tube temperature of 37° C. and used in live cell counting.
# The cells were thawed by the addition of 1 mL of a medium to the cryopreservation vial at 37° C. and centrifuged to remove a supernatant. The cells thus obtained by centrifugation were resuspended in a medium, followed by live cell counting.
# mouse fibroblasts (mNF) = assay: Cryopreservation test, survival rate of mNF cells; assay type: cell-based; details: 10 wt % in Water; after cryopreservation
# Experimental: In the case of adherent cells, the cells to be frozen were treated with trypsin and recovered by centrifugation. In the case of floating cells, the cells to be frozen were recovered by centrifugation. The cells of each type were diluted with Dulbecco's modified Eagle medium (DMEM), and the cell concentration was measured. In the present specification, the DMEM solution is also simply referred to as a medium. […] Frosty®. In the present Examples, the commercially available cryopreservative solution used was CultureSure® (manufactured by FUJIFILM Wako Pure Chemical Corp.) unless otherwise specified. The cryopreservation time was set to 48 hours. Then, the cells were thawed at a tube temperature of 37° C. and used in live cell counting. The cells were thawed by the addition of 1 mL of a medium to the cryopreservation vial at 37° C. and centrifuged to remove a supernatant. The cells thus obtained by centrifugation were resuspended in a medium, followed by live cell counting.
smiles,measurement,setting,value
C=Cn1cc[n+](CCCC(=O)[O-])c1 [VimC3C],Osmotic pressure,[1],860 mOsm/kg
same,Survival rate (BOSC),[2],0.15
same,Survival rate (mNF),mouse fibroblasts (mNF),0.42
